In patent US20260200902A1, “CRYSTALLINE FORMS OF 7-CHLORO-2-(4-(3-METHOXYAZETIDIN-1-YL)CYCLOHEXYL)-2,4- DIMETHYL-N-((6-METHYL-4-(METHYLTHIO)-2-OXO-1,2-DIHYDROPYRIDIN-3-YL)METHYL)BENZO [D][1,3]DIOXOLE-5-CARBOXAMIDE” (Constellation Pharmaceuticals, Inc., priority 2019, published 2026):
“Also recorded” adds a separate entry of the source.

Tests used:
Assay type in all cases: physicochemical
[1] = Gravimetric vapour sorption (GVS) analysis; conditions: for XRPD post GVS (solid form): after GVS analysis
[2] = Relative stability of crystalline forms (polymorph screening and competitive slurry experiments); conditions: Form 1 versus Form 2
Experimental: The amorphous form of Compound 1 samples with different purities, one with 95.2% purity (30 mg) and another with 97.6% purity (20 mg), were each suspended or dissolved in 10-30 vol of a given solvent at RT. After 5 m n equilibration at RT, all samples (solutions and suspensions) were heated to 50° C. for 10 minutes and the resulting samples were treated as follows: Suspensions were matured between 60 and 5 FC for 72 hrs (4 hrs at each temperature). Solutions were cooled from 50 to 5° C. at 0.1° C./min and maintained at 5° C. for 72 hrs. If no solid was obtained, the solutions were allowed to evaporate at RT. All the recovered solids were analyzed by XRPD and subsequently by the appropriate techniques. See Tables 1-3 for screening procedures and analytical results.

[3] = Static stability storage at elevated RH (5 days), XRPD and HPLC; conditions: for Solid form by XRPD after storage: stored for 5 days at elevated RH conditions

Hygroscopicity by GVS analysis [1]	Relative stability of crystalline form [2]	Static stability, HPLC ([3]; 25° C./97% RH (5 days))	Static stability, HPLC ([3]; 40° C./75% RH (5 days))	Solid form by XRPD after storage [3]	SMILES	XRPD post GVS (solid form) [1]	Static stability, XRPD ([3]; 25° C./97% RH (5 days))	Static stability, XRPD ([3]; 40° C./75% RH (5 days))
slightly hygroscopic	more stable than Form 2	96.8%	96.5%	remained Form 1	COC1CN(C2CCC(C3(C)Oc4c(Cl)cc(C(=O)NCc5c(SC)cc(C)[nH]c5=O)c(C)c4O3)CC2)C1 (centres unmarked) [Form 1, 7-chloro-2-(4-(3-methoxyazetidin-1-yl)cyclohexyl)-2,4-dimethyl-N-((6-methyl-4-(methylthio)-2-oxo-1,2-dihydropyridin-3-yl)methyl)benzo[d][1,3]dioxole-5-carboxamide]	remained Form 1; also recorded: showed the material remained Pattern 1	XRPD: Slight reduction in crystallinity,; also recorded: remained pattern 1	XRPD: Slight reduction in crystallinity,; also recorded: remained pattern 1
	less stable crystalline form than Form 1			became amorphous	COC1CN(C2CCC(C3(C)Oc4c(Cl)cc(C(=O)NCc5c(SC)cc(C)[nH]c5=O)c(C)c4O3)CC2)C1 (centres unmarked) [Form 2, 7-chloro-2-(4-(3-methoxyazetidin-1-yl)cyclohexyl)-2,4-dimethyl-N-((6-methyl-4-(methylthio)-2-oxo-1,2-dihydropyridin-3-yl)methyl)benzo[d][1,3]dioxole-5-carboxamide]	became amorphous		
